The conditions of data set [1]: pH 7.
In the next data set the target is Glucagon Receptor (Homo sapiens, UniProt P47871). Nature of the data set: Functional assay, cAMP synthesis (luciferase reporter), glucagon receptor.
A further data set deals with GLP-1 Receptor (Homo sapiens, UniProt P43220). Nature of the data set: cell-based.

Where two headings read alike, the source gives them in different places. Ends that are not written are not given here.

Chain of Glucagon Receptor (P47871 26-477): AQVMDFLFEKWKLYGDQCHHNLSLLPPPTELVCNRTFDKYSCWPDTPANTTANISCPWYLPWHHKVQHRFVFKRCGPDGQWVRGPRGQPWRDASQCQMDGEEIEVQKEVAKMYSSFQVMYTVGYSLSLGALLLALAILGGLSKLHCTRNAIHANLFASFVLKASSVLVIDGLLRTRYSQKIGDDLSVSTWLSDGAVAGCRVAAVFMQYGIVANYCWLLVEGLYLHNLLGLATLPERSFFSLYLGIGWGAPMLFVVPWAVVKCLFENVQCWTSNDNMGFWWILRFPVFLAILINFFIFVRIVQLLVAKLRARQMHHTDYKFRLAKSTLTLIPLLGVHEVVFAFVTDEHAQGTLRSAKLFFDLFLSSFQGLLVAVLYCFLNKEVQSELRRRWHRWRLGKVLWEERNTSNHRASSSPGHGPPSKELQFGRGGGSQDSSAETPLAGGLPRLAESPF
Chain of GLP-1 Receptor (P43220 24-463, species assumed): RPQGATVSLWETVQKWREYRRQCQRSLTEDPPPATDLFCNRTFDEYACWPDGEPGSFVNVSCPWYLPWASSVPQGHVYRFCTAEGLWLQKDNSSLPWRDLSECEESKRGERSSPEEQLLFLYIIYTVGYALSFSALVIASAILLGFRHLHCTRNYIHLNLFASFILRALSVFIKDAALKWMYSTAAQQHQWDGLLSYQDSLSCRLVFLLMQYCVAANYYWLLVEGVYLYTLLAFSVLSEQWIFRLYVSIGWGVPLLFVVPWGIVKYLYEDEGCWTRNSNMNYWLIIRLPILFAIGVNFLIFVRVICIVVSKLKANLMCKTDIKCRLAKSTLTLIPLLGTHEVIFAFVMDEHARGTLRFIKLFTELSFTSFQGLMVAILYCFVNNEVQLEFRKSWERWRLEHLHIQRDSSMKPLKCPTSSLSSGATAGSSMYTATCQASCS

In the case of “Glucagon Cys^17 Mal-PEG-5K [Glucagon, Cys17PEG5K]”, the “Percent Soluble” value in data set [1] is on record as 94%.

Usually EC50 stands for the concentration needed to bring the measured effect to its halfway point. As to “Glucagon Cys^24 Maleimido, PEG-3.4K-dimer [Glucagon C24 Dimer]”, the EC50 on Glucagon Receptor (read-out: cAMP Induction Glucagon Receptor EC50, Table 3 (pegylated analogs), HEK293 cells co-transfected with glucagon receptor and CRE-luciferase, 5 h at 37° C.) was found to be 0.1 ± 0.05 nM.

Take “HSQGTFTSDYSRYLDSRRAKDFVQWLMNT [Glucagon R12 K20]”: at Glucagon Receptor, the 50% effective concentration (EC50) was 0.84 ± 0.4 nM.

In the case of “HSQGTFTSDYSRYLDSRRAQDFVQWLMNK [Glucagon R12 K29]”, the EC50 amounted to 0.81 ± 0.49 nM at Glucagon Receptor and 0.41 ± 0.24 nM at GLP-1 Receptor.

The values above are taken from US8338368B2 (priority 2005, dated 2012).
